Assay results as given in patent US8415469B2, “Compounds and methods for kinase modulation, and indications therefor” (Plexxikon Inc., priority 2005, dated 2013).

Assays:
Format in all cases: biochemical
[1] = molecular target: T1, Flt1 (Homo sapiens, UniProt P17948); test: AlphaScreen kinase assay, Flt1; details: read-out: IC50, activity toward kinase Flt1
T1 construct: P1826.pETN6 BI-PTP FLT1 M799-D1165-X WT; His6 (N); made in house; host or cells: E. coli (PTP1B co-expressed)
T1 sequence (P17948 with tags, fused parts or gaps): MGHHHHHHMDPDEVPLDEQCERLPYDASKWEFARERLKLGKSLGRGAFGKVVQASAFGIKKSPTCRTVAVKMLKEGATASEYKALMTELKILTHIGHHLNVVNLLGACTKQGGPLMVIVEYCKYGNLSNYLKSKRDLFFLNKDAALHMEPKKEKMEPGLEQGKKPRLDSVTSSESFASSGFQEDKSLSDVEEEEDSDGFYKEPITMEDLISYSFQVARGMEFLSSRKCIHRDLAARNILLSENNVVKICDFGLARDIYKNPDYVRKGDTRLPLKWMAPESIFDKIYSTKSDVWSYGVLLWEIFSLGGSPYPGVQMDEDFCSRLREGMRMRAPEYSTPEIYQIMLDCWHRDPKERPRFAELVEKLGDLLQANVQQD

[2] = molecular target: T2, Jak3 (Homo sapiens, UniProt P52333); test: AlphaScreen kinase assay, Jak3; details: read-out: IC50, activity toward kinase Jak3
T2 sequence (P52333 1-1124): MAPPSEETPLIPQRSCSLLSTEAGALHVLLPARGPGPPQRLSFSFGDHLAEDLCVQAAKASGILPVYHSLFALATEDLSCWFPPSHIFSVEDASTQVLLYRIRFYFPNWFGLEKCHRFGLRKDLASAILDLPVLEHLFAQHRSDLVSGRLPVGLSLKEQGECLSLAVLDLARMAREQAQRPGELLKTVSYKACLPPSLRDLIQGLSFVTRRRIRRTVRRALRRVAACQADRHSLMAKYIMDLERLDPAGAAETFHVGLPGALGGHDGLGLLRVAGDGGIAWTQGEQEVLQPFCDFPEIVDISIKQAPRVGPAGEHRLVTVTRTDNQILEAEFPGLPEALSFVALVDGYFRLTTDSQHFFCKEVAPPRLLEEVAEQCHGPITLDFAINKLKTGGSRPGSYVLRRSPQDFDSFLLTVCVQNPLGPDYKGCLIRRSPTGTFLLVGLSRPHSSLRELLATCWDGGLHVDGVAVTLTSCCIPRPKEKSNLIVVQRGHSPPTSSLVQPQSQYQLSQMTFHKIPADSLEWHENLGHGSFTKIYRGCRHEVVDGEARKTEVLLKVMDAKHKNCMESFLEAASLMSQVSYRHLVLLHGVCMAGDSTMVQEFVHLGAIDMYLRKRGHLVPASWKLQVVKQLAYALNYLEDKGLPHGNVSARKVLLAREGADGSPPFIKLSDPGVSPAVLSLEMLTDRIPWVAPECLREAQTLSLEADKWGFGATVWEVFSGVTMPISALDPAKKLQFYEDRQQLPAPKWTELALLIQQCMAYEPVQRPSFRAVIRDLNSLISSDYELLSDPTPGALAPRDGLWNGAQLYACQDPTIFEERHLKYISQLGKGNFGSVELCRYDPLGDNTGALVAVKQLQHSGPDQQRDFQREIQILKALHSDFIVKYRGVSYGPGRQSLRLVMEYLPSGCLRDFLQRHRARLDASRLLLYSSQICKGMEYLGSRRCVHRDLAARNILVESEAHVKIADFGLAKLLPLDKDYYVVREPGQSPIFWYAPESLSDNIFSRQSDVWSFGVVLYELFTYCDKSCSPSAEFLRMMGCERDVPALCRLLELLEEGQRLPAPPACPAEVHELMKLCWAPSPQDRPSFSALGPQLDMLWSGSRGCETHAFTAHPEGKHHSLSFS
Procedure, shortened: (§1)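 Bead-proximity format: phosphopeptide links anti-phospho antibody acceptor beads to streptavidin donor beads via biotin tag. Compounds were serially diluted 1:3 (8 points) from 20 mM stocks in DMSO.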

[3] = molecular target: T3, Abl (Homo sapiens, UniProt P00519); test: AlphaScreen kinase assay, Abl; details: read-out: activity toward kinase Abl, IC50
T3 construct: P1121. pET-SPEC BI-PTP Abl G227-V515-X; His6 (N); made in house; host or cells: E. coli (PTP1B co-expressed)
T3 sequence (P00519 with tags, fused parts or gaps): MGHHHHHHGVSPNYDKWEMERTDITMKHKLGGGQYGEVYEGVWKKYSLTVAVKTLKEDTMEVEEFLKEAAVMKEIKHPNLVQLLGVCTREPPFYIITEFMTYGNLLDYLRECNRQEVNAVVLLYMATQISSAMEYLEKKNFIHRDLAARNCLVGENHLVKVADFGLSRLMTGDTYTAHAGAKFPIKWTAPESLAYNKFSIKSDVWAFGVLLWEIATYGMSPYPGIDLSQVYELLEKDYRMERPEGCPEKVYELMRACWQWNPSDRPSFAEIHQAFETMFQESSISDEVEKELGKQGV
Procedure, shortened: as §1

[4] = molecular target: T4, Jnk3 (Homo sapiens, UniProt P53779); test: AlphaScreen kinase assay, Jnk3; details: read-out: IC50, activity toward kinase Jnk3
T4 construct: purchased Upstate Biotechnology
T4 sequence (P53779 whole entry): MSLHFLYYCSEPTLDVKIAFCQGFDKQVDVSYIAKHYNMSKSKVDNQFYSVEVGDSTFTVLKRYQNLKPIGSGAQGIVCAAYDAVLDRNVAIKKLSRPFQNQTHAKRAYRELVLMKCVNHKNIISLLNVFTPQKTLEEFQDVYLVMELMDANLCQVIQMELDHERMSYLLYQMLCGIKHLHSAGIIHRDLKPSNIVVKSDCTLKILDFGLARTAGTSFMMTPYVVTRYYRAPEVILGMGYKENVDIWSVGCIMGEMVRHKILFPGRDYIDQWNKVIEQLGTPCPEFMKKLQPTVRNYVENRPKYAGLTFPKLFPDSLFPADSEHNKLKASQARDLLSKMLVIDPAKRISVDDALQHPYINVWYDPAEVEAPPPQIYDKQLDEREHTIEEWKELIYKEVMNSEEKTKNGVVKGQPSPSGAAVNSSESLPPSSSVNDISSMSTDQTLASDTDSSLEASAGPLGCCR
From the text: AlphaScreen assay was used to screen additional kinases. The assay is similarly dependent on the phosphorylation of a peptide substrate. In this assay, an antibody that recognizes phosphorylated substrate is bound to an acceptor bead. The peptide substrate is attached to biotin, which binds to a donor head that contains streptavidin. Thus phosphorylated substrate is bound by antibody and streptavidin, bringing the donor and acceptor heads into close proximity when kinase is not inhibited. The donor produces singlet oxygen which results in emission from the acceptor when they are in close proximity. Conversely, when kinase is inhibited, the donor and acceptor beads are not associated and the emission from the acceptor is reduced.
AlphaScreen assays were done using compounds dissolved in DMSO to a concentration of 20 mM. The compounds were diluted accordingly to the desired final concentrations in each sample well, using 1:3 serial dilution for a total of 8 concentration points. Plates were prepared such that each kinase reaction is 20 μl in 1× kinase buffer, 5% DMSO and 10 μM ATP. After incubation of the kinase reaction for 1 hour at room temperature, 5 μl of donor beads in stop buffer (50 mM EDTA in 1× kinase buffer) was added, the sample was mixed and incubated for 20 minutes at room temperature before adding 5 μl of acceptor beads in stop buffer. The samples were incubated for 60 minutes at room temperature and the signal per well was read on AlphaQuest reader.

[5] = molecular target: T5, Fak (Homo sapiens, UniProt Q05397); test: AlphaScreen kinase assay, Fak; details: read-out: IC50, activity toward kinase Fak
T5 construct: P1358.pFastBacHtb FAK S411-Q686-X; His6 with pFastBacHTb leader (TEV site) (N); made in house; host or cells: Sf9 (baculovirus)
T5 sequence (Q05397 411-686): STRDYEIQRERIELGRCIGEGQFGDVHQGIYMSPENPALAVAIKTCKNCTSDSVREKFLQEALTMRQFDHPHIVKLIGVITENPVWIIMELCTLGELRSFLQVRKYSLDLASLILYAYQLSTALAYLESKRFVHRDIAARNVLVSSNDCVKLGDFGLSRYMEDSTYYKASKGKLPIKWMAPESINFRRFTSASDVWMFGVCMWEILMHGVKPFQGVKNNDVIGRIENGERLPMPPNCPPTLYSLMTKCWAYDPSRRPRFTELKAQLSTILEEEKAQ

[6] = molecular target: T6, Jnk1 (Homo sapiens, UniProt P45983); test: AlphaScreen kinase assay, Jnk1; details: read-out: IC50, activity toward kinase Jnk1
T6 construct: purchased Upstate Biotechnology
T6 sequence (P45983 whole entry): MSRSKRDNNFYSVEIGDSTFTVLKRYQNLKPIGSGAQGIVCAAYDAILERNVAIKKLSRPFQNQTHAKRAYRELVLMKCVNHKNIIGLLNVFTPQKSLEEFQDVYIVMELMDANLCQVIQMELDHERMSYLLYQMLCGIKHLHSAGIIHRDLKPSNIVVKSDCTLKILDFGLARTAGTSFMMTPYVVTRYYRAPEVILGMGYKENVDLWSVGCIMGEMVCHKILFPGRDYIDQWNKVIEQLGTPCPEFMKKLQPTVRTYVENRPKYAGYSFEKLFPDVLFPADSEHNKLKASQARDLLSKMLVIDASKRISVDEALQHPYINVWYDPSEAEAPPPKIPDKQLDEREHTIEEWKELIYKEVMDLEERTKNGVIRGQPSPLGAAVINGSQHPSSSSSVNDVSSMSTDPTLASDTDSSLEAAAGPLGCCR

Measured: IC50

O=C(c1cccc(O)c1)c1c[nH]c2ncc(Br)cc12 [Compound P-0019]
≤ 10 µM: [1] | [2] | [3]

CS(=O)(=O)c1cccc(-c2cnc3[nH]cc(C(O)c4c(F)ccc(F)c4F)c3c2)c1 (centres unmarked) [Compound P-0020]
≤ 10 µM: [1] | [2]

Oc1ccc(F)c(Cc2c[nH]c3ncc(Br)cc23)c1F [Compound P-0122, 3-(5-Bromo-1H-pyrrolo[2,3-b]pyridin-3-ylmethyl)-2,4-difluoro-phenol]
≤ 10 µM: [4] | [2]

O=C(c1ccc(O)cc1)c1c[nH]c2ncc(-c3cccs3)cc12 [Compound P-0024, (4-Hydroxy-phenyl)-(5-thiophen-2-yl-1H-pyrrolo[2,3-b]pyridin-3-yl)-methanone]
≤ 10 µM: [1] | [4] | [5] | [2]

O=C(c1cccc(O)c1)c1c[nH]c2nccc(-c3cc(F)cc(F)c3)c12 [Compound P-0039]
≤ 10 µM: [1] | [2]

Nc1cccc(-c2cnc3[nH]cc(C(=O)c4cccc(O)c4F)c3c2)c1 [Compound P-0004, [5-(3-amino-phenyl)-1H-pyrrolo[2,3-b]pyridin-3-yl]-(2-fluoro-3-hydroxy-phenyl)methanone]
not listed: [3]
≤ 10 µM: all other assays above

O=C(c1cccc(O)c1F)c1c[nH]c2ncc(-c3cccs3)cc12 [Compound P-0521, (2-fluoro-3-hydroxy-phenyl)-(5-thiophen-2-yl-1H-pyrrolo[2,3-b]pyridin-3-yl)-methanone]
not listed: [5]
≤ 10 µM: all other assays above

Nc1cccc(-c2cnc3[nH]cc(C(=O)c4cccc(O)c4)c3c2)c1 [Compound P-0003]
≤ 10 µM: all assays above

OC(c1c(F)ccc(F)c1F)c1c[nH]c2ncc(-c3cccnc3)cc12 (centres unmarked) [Compound P-0101]
≤ 10 µM: [1] | [2]

Oc1ccc(F)c(C(O)c2c[nH]c3ncc(-c4cccnc4)cc23)c1F (centres unmarked) [Compound P-0009, 2,4-difluoro-3-[hydroxy-(5-pyridin-3-yl-1H-pyrrolo[2,3-b]pyridin-3-yl)-methyl]-phenol]
not listed: [3]
≤ 10 µM: all other assays above

NC(=O)c1cccc(-c2cnc3[nH]cc(C(=O)c4cccc(O)c4F)c3c2)c1 [Compound P-0034, 3-[3-(2-Fluoro-3-hydroxy-benzoyl)-1H-pyrrolo[2,3-b]pyridin-5-yl]benzamide]
not listed: [3]
≤ 10 µM: all other assays above
